Molecular target: T1, C599 maltogenic amylase from Bacillus strain C599 NCIB 11837 (Geobacillus stearothermophilus, UniProt P19531)
T1 construct: The enzyme is excreted into the medium; made in house; host or cells: Bacillus strain C599 (NCIB 11837), the natural producer; no recombinant host
T1 sequence (P19531 34-719): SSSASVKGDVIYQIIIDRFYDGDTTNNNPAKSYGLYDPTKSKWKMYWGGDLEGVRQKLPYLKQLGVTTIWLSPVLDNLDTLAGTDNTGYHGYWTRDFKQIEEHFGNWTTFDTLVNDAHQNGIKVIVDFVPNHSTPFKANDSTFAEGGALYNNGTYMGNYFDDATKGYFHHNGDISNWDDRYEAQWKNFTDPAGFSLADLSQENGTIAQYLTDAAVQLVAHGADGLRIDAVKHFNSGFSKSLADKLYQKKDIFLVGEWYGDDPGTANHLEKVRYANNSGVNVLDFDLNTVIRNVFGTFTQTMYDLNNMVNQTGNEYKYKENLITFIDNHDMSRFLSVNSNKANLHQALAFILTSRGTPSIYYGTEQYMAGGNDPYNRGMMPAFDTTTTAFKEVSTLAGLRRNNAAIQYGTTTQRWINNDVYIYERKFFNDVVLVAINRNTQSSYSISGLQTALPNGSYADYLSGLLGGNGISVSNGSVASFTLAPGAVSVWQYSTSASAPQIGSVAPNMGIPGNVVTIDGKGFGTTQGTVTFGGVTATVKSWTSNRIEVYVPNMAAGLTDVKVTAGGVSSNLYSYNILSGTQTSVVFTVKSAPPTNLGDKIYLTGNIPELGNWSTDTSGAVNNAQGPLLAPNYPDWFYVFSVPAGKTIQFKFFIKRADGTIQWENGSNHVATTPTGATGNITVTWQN
Assay: Inhibition of C599-amylase (residual activity after incubation with inhibitors)
Assay type: biochemical
Conditions: None = 100
Method: One maltogenic amylase unit (U) is defined as the amount of enzyme which under standard conditions (temperature 60° C., pH 5.5, and reaction time 30 minutes) produces reducing sugar corresponding to 1 μmol maltose per minute.
A 0.5% soluble starch (supplied by Merck) in 0.1M acetate buffer or 0.05M phosphate buffer (pH 5) is incubated with 1 ml of the enzyme dissolved in deionized water containing 0.1-0.2 U per ml. The reaction is stopped after 30 minutes by addition of 4 ml 0.5N NaOH.
The content of reducing sugar is then determined by means of the Somogyi method (Somogyi: J.Biol.Chem., 153, p. 375-80 (1944).

Row | Structure (SMILES) | Residual activity after 60 min. at room temperature, % (inhibitor 1 mM) [%] | Residual activity after 60 min. at room temperature, % (inhibitor 1%) [%]
1 | O=C(O)c1cc[c]([Hg][Cl])cc1 [PCMB, parachloromecuribenzoate] | 92 | –
2 | OC[C@H]1O[C@@H]2O[C@H]3[C@H](O)[C@@H](O)[C@@H](O[C@H]4[C@H](O)[C@@H](O)[C@@H](O[C@H]5[C@H](O)[C@@H](O)[C@@H](O[C@H]6[C@H](O)[C@@H](O)[C@@H](O[C@H]7[C@H](O)[C@@H](O)[C@@H](O[C@H]1[C@H](O)[C@H]2O)O[C@@H]7CO)O[C@@H]6CO)O[C@@H]5CO)O[C@@H]4CO)O[C@@H]3CO [Schardinger-α-cyclodextrin] | – | 109
3 | OC[C@H]1O[C@@H]2O[C@H]3[C@H](O)[C@@H](O)[C@@H](O[C@H]4[C@H](O)[C@@H](O)[C@@H](O[C@H]5[C@H](O)[C@@H](O)[C@@H](O[C@H]6[C@H](O)[C@@H](O)[C@@H](O[C@H]7[C@H](O)[C@@H](O)[C@@H](O[C@H]8[C@H](O)[C@@H](O)[C@@H](O[C@H]1[C@H](O)[C@H]2O)O[C@@H]8CO)O[C@@H]7CO)O[C@@H]6CO)O[C@@H]5CO)O[C@@H]4CO)O[C@@H]3CO [Schardinger-β-cyclodextrin] | – | 107

From patent publication US4604355A, “Maltogenic amylase enzyme, preparation and use thereof” (Novo Industri A/S, priority 1983, dated 1986)
